Drawing on patent publication US11261201B2 (priority 2018, dated 2022), this text covers MIC for 32 compounds.

Structures are written as SMILES. ≈ marks a conversion by molar mass, not a printed value. Where a name gives a salt, the structure may show the parent alone. Read-outs that look alike come from different tables or passages of the source.

The test system of experiment [1] is E. coli. The experiment is described as follows: Gram negative MIC protocol (OD600, LB, 24 h). To be noted: Escherichia coli.
Protocol: (§1) Overnight bacterial cultures were grown in LB with no added antibiotics at 37° C. with shaking. A 1:1000 dilution of these cultures into LB was exposed to concentration gradients of compounds in 96-well plates (100 μL per well assay volume). Resulting plates were incubated at 37° C. for 24 h without shaking, and OD600 was measured at the end of the incubation. MICs were determined as the lowest concentrations at which OD600 remained at baseline.
The test system of experiment [2] is H37RvMA. The experiment is described as follows: Tuberculosis Alamar Blue/Resazurin assay (MIC). Format: cell-based. To be noted: Mycobacterium tuberculosis, H37RV, read-out: WT H37Rv MTB Activity. In general terms: The colour change of resazurin is a common sign of viable cells or microbes.
In experiment [3] the test system is A. baumannii. The experiment in a line: Gram negative MIC protocol (OD600, LB, 24 h). The following applies: Acinetobacter baumannii.
Protocol: as §1
Where [4] appears, read: read-out: MIC E. coli delta-TolC LB Media, E. coli delta-TolC, LB media, OD600.
Where [5] appears, read: read-out: MIC WT E. coli LB Media, WT E. coli, LB media, OD600.
Where [6] appears, read: read-out: MIC A. baumannii LB Media, A. baumannii, LB media, 24 h, OD600.
Where [7] appears, read: read-out: MIC E. coli delta-TolC LB Media, E. coli delta-TolC strain, LB media, 24 h, OD600.
The mark [8] stands for this setting: read-out: MIC WT E. coli LB Media, wild-type E. coli, LB media, 24 h, OD600.
Where [9] appears, read: read-out: MIC A. baumannii LB Media.

Take `c1ccc(CNCC2Cc3ccccc32)cc1` (centres unmarked) [B22]: the MIC in experiment [1] (setting [4]), in experiment [1] (setting [5]), in experiment [2] (WT H37Rv MTB) and in experiment [3] (setting [6]) was over 150 µM in each case.

Consider `CC(C)(CC1CCCCCC1)NCc1ccccc1` [B92], for which the MIC in experiment [1] (setting [4]), in experiment [1] (setting [5]), in experiment [2] (WT H37Rv MTB) and in experiment [3] (setting [6]) was over 150 µM throughout.

As for `Brc1ccc(CC2(NCc3ccccc3)CC2)cc1` [B91], the MIC in experiment [1] (setting [4]) is 90 µM (≈ 28.5 µg/mL); in experiment [1] (setting [5]), over 150 µM; in experiment [2], over 150 µM; in experiment [3] (setting [6]) it was over 150 µM.

Take `CNC(=O)COc1ccccc1CNC(C)CC1CCCCC1` (centres unmarked) [B243]: the MIC is 12 µM (≈ 3.82 µg/mL) in experiment [1] (setting [7]), over 150 µM in experiment [1] (setting [8]), over 150 µM in experiment [2] (WT H37Rv MTB) and over 150 µM in experiment [3] (setting [6]).

In the case of `Cc1noc(COc2ccccc2CNC(C)CC2CCCCC2)n1` (centres unmarked) [B278], the MIC is 12 µM (≈ 4.12 µg/mL) in experiment [1] (setting [7]), over 150 µM in experiment [1] (setting [8]), over 150 µM in experiment [2] (WT H37Rv MTB) and over 150 µM in experiment [3] (setting [6]).

As for `CC(C)(C)OC(=O)N(Cc1ccccc1)C(C=O)CC1CCCCC1` (centres unmarked) [B210, tert-butyl benzyl(1-cyclohexyl-3-oxopropan-2-yl)carbamate], the MIC was over 300 µM in experiment [1] (setting [7]), over 300 µM in experiment [1] (setting [8]), over 150 µM in experiment [2] (WT H37Rv MTB) and over 300 µM in experiment [3] (setting [6]).

For `c1ccc(CNCC2CCCC2)cc1` [B141], the MIC in experiment [1] (setting [4]), in experiment [1] (setting [5]), in experiment [2] (WT H37Rv MTB) and in experiment [3] (setting [6]) was over 150 µM each time.

As to `Fc1ccc(CC2(NCc3ccccc3)CC2)cc1` [B97], the MIC in experiment [1] (setting [4]), in experiment [1] (setting [5]), in experiment [2] and in experiment [3] (setting [6]) was over 150 µM in each case.

Take `c1ccc(CNCCc2ccc3c(c2)CCO3)cc1` [B24]: the MIC in experiment [1] (setting [4]), in experiment [1] (setting [5]), in experiment [2] and in experiment [3] (setting [9]) was over 150 µM throughout.

Regarding `NC(=O)Nc1ccccc1CNCCC1CCCCC1` [B373], the MIC in experiment [1] (setting [7]) is 150 µM (≈ 41.3 µg/mL); in experiment [1] (setting [8]) it was over 150 µM; in experiment [2] (WT H37Rv MTB), over 150 µM; in experiment [3] (setting [6]) it was over 150 µM.

For the compound `c1ccc(Oc2ccccc2CNCCC2CCCCC2)cc1` [B232, 2-cyclohexyl-N-(2-phenoxybenzyl)ethanamine hydrochloride], the MIC in experiment [1] (setting [7]) turned out to be 17 µM; in experiment [1] (setting [8]), 170 µM; in experiment [2] (WT H37Rv MTB), 91 µM; in experiment [3] (setting [6]) it was 96 µM.

Take `Fc1ccc(CNCCC2=CCCCC2)cc1F` [B144]: the MIC in experiment [1] (setting [4]), in experiment [1] (setting [5]), in experiment [2] (WT H37Rv MTB) and in experiment [3] (setting [6]) was over 150 µM throughout.

`CC(CC1CCCCC1)NCc1ccccc1O` (centres unmarked) [B319]: the MIC is 12 µM (≈ 2.97 µg/mL) in experiment [1] (setting [7]), 33 µM (≈ 8.16 µg/mL) in experiment [1] (setting [8]), 150 µM (≈ 37.1 µg/mL) in experiment [2] and over 150 µM in experiment [3] (setting [9]).

As for `c1ccc(OCC2CCOC2)c(CNCCC2CCCCC2)c1` (centres unmarked) [B330, 2-cyclohexyl-N-(2-((tetrahydrofuran-3-yl)methoxy)benzyl)ethanamine], the MIC in experiment [1] (setting [7]) was 33 µM (≈ 10.5 µg/mL); in experiment [1] (setting [8]), over 150 µM; in experiment [2] (WT H37Rv MTB), over 150 µM; in experiment [3] (setting [6]) it was over 150 µM.

On to `OC1(CNCc2ccccc2)C2C3CC4C5C3CC2C5C41` (centres unmarked) [B37], for which the MIC in experiment [1] (setting [4]) is over 150 µM; in experiment [1] (setting [5]), over 150 µM; in experiment [2] (WT H37Rv MTB), 150 µM (≈ 42.2 µg/mL); in experiment [3] (setting [6]) it was over 150 µM.

Turning to `c1ccc(CNCCC23CCCCC2C3)cc1` (centres unmarked) [B182], the MIC in experiment [1] (setting [4]) was over 300 µM; in experiment [1] (setting [5]), over 300 µM; in experiment [2] (WT H37Rv MTB), 91 µM (≈ 20.9 µg/mL); in experiment [3] (setting [6]), over 300 µM.

For `CC1(C)Cc2cccc(CCNCc3ccccc3)c2O1` [B108], the MIC in experiment [1] (setting [4]), in experiment [1] (setting [5]), in experiment [2] and in experiment [3] (setting [9]) was over 150 µM in each case.

Consider `O=C1Cc2ccccc2CN1CCC1CCSCC1` [B410, 2-(2-(tetrahydro-2H-thiopyran-4-yl)ethyl)-1,4-dihydroisoquinolin-3(2H)-one], for which the MIC in experiment [1] (setting [4]), in experiment [1] (setting [5]), in experiment [2] (WT H37Rv MTB) and in experiment [3] (setting [6]) was over 150 µM throughout.

`CC1CCCCC1CCNCc1ccccc1` (centres unmarked) [B178]: the MIC in experiment [1] (setting [4]) is over 300 µM; in experiment [1] (setting [5]), over 300 µM; in experiment [2] (WT H37Rv MTB) it was 55 µM (≈ 12.7 µg/mL); in experiment [3] (setting [6]), over 300 µM.

With `CC(CC1CCCCC1)NCc1ccccc1OCCO` (centres unmarked) [B337], the MIC is 4 µM (≈ 1.17 µg/mL) in experiment [1] (setting [7]), 55 µM (≈ 16 µg/mL) in experiment [1] (setting [8]), over 150 µM in experiment [2] (WT H37Rv MTB) and 150 µM (≈ 43.7 µg/mL) in experiment [3] (setting [6]).

As for `CCCNC(=O)COc1ccccc1CNC(C)CC1CCCCC1` (centres unmarked) [B242], the MIC in experiment [1] (setting [7]) is 12 µM (≈ 4.16 µg/mL); in experiment [1] (setting [8]), over 150 µM; in experiment [2] (WT H37Rv MTB) it was over 150 µM; in experiment [3] (setting [6]), over 150 µM.

As to `c1ccc(CNCCC2CSc3ccccc3O2)cc1` (centres unmarked) [B118], the MIC in experiment [1] (setting [4]), in experiment [1] (setting [5]), in experiment [2] (WT H37Rv MTB) and in experiment [3] (setting [6]) was over 150 µM in each case.

With `c1ccc(CNCCc2ccc3[nH]ccc3c2)cc1` [B56], the MIC in experiment [1] (setting [4]), in experiment [1] (setting [5]), in experiment [2] and in experiment [3] (setting [9]) was over 150 µM in each case.

Turning to `Fc1ccc(C2CC2NCc2ccccc2)cc1F` (stereo in doubt) [B211, (1S,2R)-N-benzyl-2-(3,4-difluorophenyl)cyclopropanamine hydrochloride], the MIC was 300 µM in experiment [1] (setting [7]), over 300 µM in experiment [1] (setting [8]), over 150 µM in experiment [2] and 300 µM in experiment [3] (setting [6]).

As for `COc1ccccc1CNCCC1CCCCC1` [B253, 2-cyclohexyl-N-(2-methoxybenzyl)ethanamine hydrochloride], the MIC in experiment [1] (setting [7]) was 37 µM; in experiment [1] (setting [8]), 150 µM; in experiment [2] (WT H37Rv MTB), over 150 µM; in experiment [3] (setting [6]), over 150 µM.

On to `CC(Cc1ccccn1)NCc1ccccc1` (centres unmarked) [B75], for which the MIC in experiment [1] (setting [4]), in experiment [1] (setting [5]), in experiment [2] and in experiment [3] (setting [6]) was over 150 µM throughout.

Regarding `O=C1Cc2ccccc2CN1CCC1CCCC1` [B427, 2-(2-cyclopentylethyl)-1,4-dihydroisoquinolin-3(2H)-one], the MIC is over 150 µM in experiment [1] (setting [4]), over 150 µM in experiment [1] (setting [5]), 2.7 µM (≈ 0.657 µg/mL) in experiment [2] (WT H37Rv MTB) and over 150 µM in experiment [3] (setting [6]).

Take `C1=C(CCNCc2ccccc2)c2ccccc2C1` [B27]: the MIC in experiment [1] (setting [4]) is over 150 µM; in experiment [1] (setting [5]), over 150 µM; in experiment [2] (WT H37Rv MTB), 91 µM (≈ 22.7 µg/mL); in experiment [3] (setting [6]), over 150 µM.

Turning to `CC1CCC(CCNCc2ccccc2)CC1` (centres unmarked) [B221], the MIC in experiment [1] (setting [7]) is 150 µM (≈ 34.7 µg/mL); in experiment [1] (setting [8]), 300 µM (≈ 69.4 µg/mL); in experiment [2] (WT H37Rv MTB), 150 µM (≈ 34.7 µg/mL); in experiment [3] (setting [6]), 220 µM (≈ 50.9 µg/mL).

As for `OCc1cccc(CNCCC2CCCCC2)c1` [B375], the MIC in experiment [1] (setting [7]), in experiment [1] (setting [8]), in experiment [2] (WT H37Rv MTB) and in experiment [3] (setting [6]) was over 150 µM throughout.

With `CC(CC1CCCCC1)NCc1ccccc1CS(=O)(=O)Nc1cccc(B(O)O)c1` (centres unmarked) [B457, (3-(((2-(((1-cyclohexylpropan-2-yl)amino)methyl)phenyl)methyl)sulfonamido)phenyl)boronic acid], the MIC in experiment [1] (setting [4]) is under 1 µM; in experiment [1] (setting [5]), 33 µM (≈ 14.7 µg/mL); in experiment [2] (WT H37Rv MTB) it was over 55 µM; in experiment [3] (setting [6]), 33 µM (≈ 14.7 µg/mL).

Consider `COc1ccc(CNCCC2=CCCCC2)cc1` [B12], for which the MIC in experiment [1] (setting [4]), in experiment [1] (setting [5]), in experiment [2] (WT H37Rv MTB) and in experiment [3] (setting [6]) was over 150 µM each time.
